Laboratory results taken from patent publication USRE40707E1, “Use of carbazole compounds for the treatment of congestive heart failure” (SB Pharmco Puerto Rico Inc., priority 1995, dated 2009).
Read-outs that look alike come from different tables or passages of the source.

How the values were obtained:
[1] = system: patients with CHF; settings: treatment of CHF; cited from earlier work
[2] = system: patients with CHF; assay: U.S. Carvedilol Heart Failure Trials: mortality studies in CHF patients; type: in vivo, human; settings: for Risk reduction of mortality / Risk reduction, All Cause Mortality: vs placebo; for All Cause Mortality (%) / Risk reduction, All Cause Mortality: all patients; for All Cause Mortality (%): class II-IV CHF, intention-to-treat, placebo 8.2%; for Risk reduction, All Cause Mortality: 95% CI 42-81
Description: To determine if β-adrenergic blockade might inhibit the deleterious effects of the sympathetic nervous system on survival in heart failure (CHF), 1052 patients with CHF were prospectively enrolled into a multicenter trial program, in which the patients were randomly assigned (double-blind) to 6-12 months' treatment with placebo (PBO) or carvedilol (CRV). After a common screening period, patients with class II-IV CHF (see next paragraph for the definitions of the classification of CI) and an ejection fraction <0.35 were assigned to one of four protocols based on performance on a 6-minute walk test. PBO or CRV was added to existing therapy with digoxin, diuretics and an ACE inhibitor. All-cause mortality was monitored by a prospectively constituted Data and Safety Monitoring Board (DSMB). After 25 months of enrollment, the DSMB recommended termination of the program because of a favorable effect of CRV on survival. By […], mortality was 8.2% in the PBO group but only 2.9% in the CRV group (P=0.0001. Cochran-Mantel-Haensel analysis). This represented a reduction in risk of death by CRV of 67% (95% CI: 42% to 81%). The treatment effect was similar in patients with class II and class III-IV symptoms. Mortality was reduced in class II patients from 5.9% to 1.9%, a 68% reduction (95% CI: 20% to 97%) [P=0.015,), and in class III-IV patients from 11.0% to 4.2%. a 67% reduction (95% CI 30% to 84%), [P=0.004, a log-rank]. Importantly, the effect of CRV was similar in ischematic heart disease (risk reduced by 67%. P=0.003) and in nonischemic dilated cardiomyopathy (risk reduced by 67%. P=0.014). […] The treatment effect is seen across a broad range of severity and etiology of disease.
Patients on background therapy with diuretics. ACE inhibitors and/or digoxin were stratified on the basis of baseline […] exercise performance, into one of four trials: • study 220, a dose response study in moderate (NYHA II-IV) CHF with exercise testing as a primary endpoint • study 221, a dose titration study in moderate (NYHA II-IV) CI with exercise testing as a primary endpoint • study 239, a dose titration study in severe (NYHA III-IV) CHF with quality of life as a primary endpoint • study 240, a dose titration study in mild (NYHA II—III) CHF with progression of CHF as a primary endpoint
Sixty-four centers in the US participated in the trial program. All sites conducted protocols 239 and 240, while 33 performed protocol 220 and 31 performed protocol 221.
Although each trial had its own individual objectives, the overall program objective defined prospectively was evaluation of all-cause mortality. Based upon a projected enrollment of 1100 patients, the program had 90% power to detect a 50% reduction in mortality (two-sided) between carvedilol and placebo, assuming a mortality rate in the placebo group of 12% over the duration of the trials (α=0.05).
Randomization was preceded by a screening and challenge period common to the four protocols. The purpose of the screening period was to quality patients for study entry obtain reproducible baseline measurements, and stratify patients into the appropriate trial based on submaximal exercise testing. During the challenge period, patients received low-dose open-label carvedilol (6.25 mg b.i.d.) for two weeks. […] Patients tolerating low-dose carvedilol were then randomized to blinded medication (carvedilol or placebo) with the dose titrated over several weeks in the range of 6.25 to 50 mg b.i.d. (or equivalent level of placebo). The maintenance phase of each study ranged from six to 12 months, after which patients had the option of receiving open-label carvedilol in an extension study.
The analysis presented below corresponds to the data set on which the DSMB made the recommendation to terminate the trials. Included in this […] analysis are all patients enrolled in the US trials as of Jan. 20, […]; 624 receiving carvedilol and 356 placebo. […]

[3] = system: acute myocardial infarction; settings: porcine model of acute myocardial infarction; cited from earlier work
[4] = system: acute myocardial infarction; settings: canine model of acute myocardial infarction; cited from earlier work
[5] = system: acute myocardial infarction; settings: rat model of acute myocardial infarction; cited from earlier work

## COCCc1ccc(OCC(O)CNC(C)C)cc1 (centres unmarked) [metoprolol]
[1]
  mortality, drug-treated vs placebo-treated patients: no difference in mortality

## CC(C)NCC(O)COc1ccc(COCCOC(C)C)cc1 (centres unmarked) [bisoprolol]
[1]
  mortality, drug-treated vs placebo-treated patients: no difference in mortality

## COc1ccccc1OCCNCC(O)COc1cccc2[nH]c3ccccc3c12 (centres unmarked) [Carvedilol]
[2]; Class II CHF, 95% CI 20-97
  Risk reduction of mortality: 68%
[2]; Class II CHF, 95% CI 20-97, listed as CRV
  Risk reduction of mortality: 68%
[2]; Class II CHF, placebo 5.9%
  Mortality (%): (1.9%)
[2]; Class II CHF, placebo 5.9%, listed as CRV
  Mortality (%): 1.9%
[2]; Class III-IV CHF, 95% CI 30-84
  Risk reduction of mortality: 66%
[2]; Class III-IV CHF, 95% CI 30-84, listed as CRV
  Risk reduction of mortality: 67%
[2]; Class III-IV CHF, placebo 11.0%
  Mortality (%): (4.2%)
[2]; Class III-IV CHF, placebo 11.0%, listed as CRV
  Mortality (%): 4.2%
[2]; Ischemic Etiology, 95% CI 32-85
  Risk reduction of mortality: 67%
[2]; Ischemic Etiology, 95% CI 32-85, listed as CRV
  Risk reduction of mortality: 67%
[2]; Ischemic Etiology, placebo 8.9%
  Mortality (%): (3.2%)
[2]; Non-Ischemic Etiology, 95% CI 20-86
  Risk reduction of mortality: 67%
[2]; Non-Ischemic Etiology, 95% CI 20-86, listed as CRV
  Risk reduction of mortality: 67%
[2]; Non-Ischemic Etiology, placebo 7.3%
  Mortality (%): (2.5%)
[2]
  All Cause Mortality (%): (2.9%)
  Risk reduction, All Cause Mortality: 67%
[2]; listed as CRV
  All Cause Mortality (%): 2.9%
  Risk reduction, All Cause Mortality: 67%
[3]
  infarct size: markedly reduces infarct size
[4]
  infarct size: markedly reduces infarct size
[5]
  infarct size: markedly reduces infarct size
